Assay results published in PMC10744391, “Sulfated Triterpene Glycosides from the Far Eastern Sea Cucumber Cucumaria djakonovi: Djakonoviosides C1, D1, E1, and F1; Cytotoxicity against Human Breast Cancer Cell Lines; Quantitative Structure–Activity Relationships” (Marine Drugs, 2023).
“Also recorded” adds a separate entry of the source. Counter-ions that a name gives are not always drawn. Like-named read-outs stand apart in the source and are kept apart here.

What was measured:
in vitro = format: cell-based; details: human
[1] = tested on: triple-negative MDA-MB-231 human breast cancer cell line; experiment: cells; format: cell-based; details: for IC50: Homo sapiens, read-out: Cytotoxicity, IC50, MDA-MB-231; for Selectivity Index (SI), MDA-MB-231: ratio of IC50 for healthy (MCF-10A) and cancer cells
MCF-7 cells [2] = experiment: Wound scratch migration assay, MCF-7; format: cell-based, human; details: MCF-7, concentrations below EC50, 72 h
Method: (§1) Attached to special migration plate plastic bottom MCF-7 or MDA-MB-231 cells were separated by a silicone insert (Culture-insert 2 Well 24, ibiTreat). After removing an insert, gap between the cells was 500 ± 50 μm. Cell debris and floating cells were deleted by washing twice with PBS; 10 μM of 5 mM initial solution of CFDA SE ((5,6)-carboxyfluorescein succinimidyl ester) (LumiTrace CFDA SE kit, Lumiprobe, Moscow, Russia) in DMSO was dissolved in PBS and added to cells for 5 min at 37 °C; after washing twice with PBS, the fresh culture medium was added. Then, cells were treated with various concentrations of glycosides or culture medium only (vehicle control) and left for 24 and 72 h. Cell migration into the wound area was observed under a fluorescence microscope (MIB-2-FL, LOMO, Russia) with objective 10× magnification.

MCF-7 cells [3] = experiment: Colony formation (clonogenic) assay, MCF-7; format: cell-based, human; details: MCF-7, concentration 2 μM, 10 days
Method: (§2) The influence of glycosides on colony formation by MCF-7 or MDA-MB-231 cells was tested by the clonogenic assay. Cell density: 1 × 10^3 for MDA-MB-231 and 0.3 × 10^3 for MCF-7 cells per well; cell culture: MEM media, 10% FBS, 10,000 U/mL of penicillin, and 10,000 μg/mL of streptomycin supplemented or not (control) with different concentration of glycosides; incubation conditions: 10 days, 37 °C, atmosphere with 5% CO2; obtained: visible to eye colonies (at least 50 cells per colony); fixation with methanol (25 min); staining with 0.5% solution of crystal violet (25 min); washing and air-drying of plates.

[4] = tested on: MCF-7 human breast cancer cell line; experiment: cells; format: cell-based; details: for IC50: read-out: Cytotoxicity, IC50, MCF-7; for Selectivity Index (SI), MCF-7: ratio of IC50 for healthy (MCF-10A) and cancer cells
MDA-MB-231 cells [5] = experiment: Colony formation (clonogenic) assay, MDA-MB-231; format: cell-based, human; details: 10 days; for inhibitory effect on the formation of colonies: MDA-MB-231, concentration 2 μM
Method: as §2

[6] = tested on: T-47D human breast cancer cell line; experiment: cells; format: cell-based; details: for IC50: Homo sapiens, T47D, read-out: Cytotoxicity, IC50, T-47D
human erythrocytes = experiment: Hemolytic activity against human erythrocytes; format: cell-based; details: human erythrocytes; for HC50: Erythrocyte, 1 h at 37 °C, dose causing lysis of 50% erythrocytes, read-out: ED50, Erythrocytes (hemolytic activity); for hemolytic activity (in words): concentration range up to 50 µM
Method: Human blood (B(III) Rh+) was used to obtain erythrocytes by centrifuging 450× g three times for 5 min with phosphate-buffered saline (PBS) (pH 7.4) at 4 °C on centrifuge LABOFUGE 400R (Heraeus, Hanau, Germany). Ice-cold PBS (pH 7.4) was used for resuspension of erythrocytes residue to a final optical density of 1.5 at 700 nm, which was kept on ice. Then, 20 µL of tested compound solution or control—djakonovioside A1 [5]—were added to 180 µL of erythrocyte suspension in V-bottom 96-well plates and exposed for 1 h at 37 °C. Next, centrifugation at 900× g for 10 min on laboratory centrifuge LMC-3000 (Biosan, Riga, Latvia), led to layers’ separation, and 100 µL of supernatant was carefully decanted and transferred into new flat-plate each. The values of erythrocyte lysis were measured on microplate photometer Multiskan FC (Thermo Fisher Scientific, Waltham, MA, USA) at λ = 570 nm as hemoglobin concentration in supernatant. The effective dose, causing lysis of 50% erythrocytes (ED50), was calculated with SigmaPlot 14.0 software. All the experiments were carried out in triple repetitions, p ≤ 0.05.

[7] = tested on: human breast cancer cell lines MCF-7, T-47D and MDA-MB-231; experiment: Cytotoxic activity (MTT assay), statements on the human breast cancer cell lines together; format: cell-based
Description: Human erythrocytes were purchased from the Station of Blood Transfusion, Vladivostok. Human mammary epithelial cell line MCF-10A CRL-10317, human breast cancer cell lines T-47D HTB-133, MCF-7 HTB-22, and MDA-MB-231 CRM-HTB-26 were received from ATCC (Manassas, VA, USA). Culturing conditions: medium of RPMI-1640 with 1% penicillin/streptomycin (Biolot, St. Petersburg, Russia) and 10% fetal bovine serum (FBS) (Biolot, St. Petersburg, Russia) for T-47D cell line; Minimum Essential Medium (MEM) with 1% penicillin/streptomycin sulfate (Biolot, St. Petersburg, Russia) and FBS (Biolot, St. Petersburg, Russia) to a final concentration of 10% for MCF-7 and MDA-MB-231 cells; DMEM/F12 medium with 10% FBS, 20 ng/mL EGF, […], 100 ng/mL cholera toxin, 10 μg/mL insulin, and 1% penicillin/streptomycin (Bioinnlabs, Russia) for MCF-10A cell line.
Methodology: to each well of 96-well plates, the cell suspension (180 µL) with solution (20 µL) of tested glycoside in the certain concentration was placed (MCF-10A, MCF-7, T-47D, and MDA-MB-231—7 × 10^3 cells per well) and incubated in the atmosphere with 5% CO2 at 37 °C for 24 h. The times of incubation of cucumarioside A2-5 (6) and djakonoviosides C1 (1) and E1 (3), at concentrations of 0.5–12.0 μM with T-47D, MCF-7, or MDA-MB-231 cells, were 24, 48, and 72 hrs. Then, the solutions of tested compounds with medium were replaced by 100 µL of fresh medium, and 10 µL of 3-(4,5-dimethylthiazol-2-yl)-2,5-diphenyltetrazolium bromide (MTT) (PanReac, AppliChem, Darmstadt, Germany) stock solution (5 mg/mL) was added to each well and incubated for 4 h, followed by the addition of 100 µL of SDS-HCl solution (1 g SDS/10 mL d-H2O/17 µL 6 N HCl) and further incubated for 18 h. Multiskan FC microplate photometer (Thermo Fisher Scientific, Waltham, MA, USA) was used to measure the absorbance of the converted dye formazan at 570 nm. The concentration caused 50% cell metabolic activity inhibition (IC50), which expresses the cytotoxic activity of each glycoside. The experiments were conducted in triplicate, p ≤ 0.05.

MDA-MB-231 cells [8] = experiment: Wound scratch migration assay, MDA-MB-231; format: cell-based, human; details: MDA-MB-231, concentration 1 μM, 24 h of incubation
Method: as §1

Row | SMILES | IC50 at 24 h (in vitro) [µM] | IC50 ([1]; MDA-MB-231, 24 h) [µM] | Selectivity Index (SI), MDA-MB-231 [1] | IC50 ([4]; Homo sapiens, MCF7, 24 h) [µM] | Selectivity Index (SI), MCF-7 [4] | inhibitory effect on the formation of colonies (MDA-MB-231 cells [5]) | IC50 ([6]; 24 h) [µM] | HC50 (human erythrocytes) [µM] | other results
1 | C=C(C)CCCC1(C)OC(=O)C23CCC4C(=CCC5C(C)(C)C(OC6OCC(OS(=O)(=O)O)C(O)C6OC6OC(CO)C(OC7OC(COS(=O)(=O)O)C(O)C(OC8OC(COS(=O)(=O)O)C(O)C(OC)C8O)C7O)C(O)C6O)CCC45C)C2(C)CC(OC(C)=O)C13 [djakonovioside E1, 3β-O-[6-O-sodium sulfate-3-O-methyl-β-D-glucopyranosyl-(1→3)-6-O-sodium sulfate-β-D-glucopyranosyl-(1→4)-β-D-glucopyranosyl-(1→2)-4-O-sodium sulfate-β-D-xylopyranosyl]-16β-acetoxyholosta-7,25-dien] | > 50 | 2.19 ± 0.17 | >22.83 | 1.52 ± 0.14 | >32.89 | 35.68 ± 2.00 % of the control | > 50 | 21.7 ± 0.94 | migration of MCF-7 cells (in words) (MCF-7 cells [2]): reliable blockage of the migration; inhibitory effect on the formation of colonies (MCF-7 cells [3]): 30.73 ± 0.49 % of the control; EC50 ([4]; Homo sapiens, MCF7, MTT, 48 h incubation, read-out: EC50, MCF-7 cells, 48 h incubation (antiproliferative effect)): 0.78 ± 0.32 µM; hemolytic activity (in words) (human erythrocytes): weakly hemolytic; also recorded: low hemolytic activity
2 | C=C(C)CCCC1(C)OC(=O)C23CCC4C(=CCC5C(C)(C)C(OC6OCC(OS(=O)(=O)O)C(O)C6OC6OCC(OC7OC(CO)C(O)C(OC8OC(CO)C(O)C(OC)C8O)C7O)C(O)C6OC6OCC(O)C(O)C6O)CCC45C)C2(C)CC(OC(C)=O)C13 [djakonovioside C1, 3β-O-{3-O-methyl-β-D-glucopyranosyl-(1→3)-β-D-glucopyranosyl-(1→4)-[(1→2)-β-D-xylopyranosyl]-β-D-xylopyranosyl-(1→2)-4-O-sodium sulfate-β-D-xylopyranosyl}-16β-acetoxyholosta-7,25-dien] | 21.8 ± 0.72 | 7.67 ± 0.32 | 2.84 | 38.6 ± 2.36 | 0.56 | approximately 25 % of the control | 16.8 ± 0.76 | 8.55 ± 0.04 | cytotoxicity on prolonged incubation (in words) [7]: did not lose cytotoxicity over time; inhibitory effect on the formation and growth of colonies (MDA-MB-231 cells [5]; MDA-MB-231, concentration 1 μM): approximately 25 % of the control; hemolytic activity (in words) (human erythrocytes; listed as Djakonovioside C1): slightly lower activity
3 | COC1C(O)C(COS(=O)(=O)O)OC(OC2C(O)C(COS(=O)(=O)O)OC(OC3C(C)OC(OC4C(OC5CCC6(C)C7=CCC8(C)C(C(C)=O)CCC8(C)C7CCC6C5(C)C)OCC(OS(=O)(=O)O)C4O)C(OC4OCC(O)C(O)C4O)C3O)C2O)C1O (centres unmarked) (hydrate or solvate) [isokoreoside A] |  |  |  |  |  |  |  |  | melting point: 215 °C
4 | COC1C(O)C(CO)OC(OC2C(O)C(CO)OC(OC3C(C)OC(OC4C(OC5CCC6(C)C7CCC89C(=O)OC(C)(CC(=O)CC(C)C)C8C(OC(C)=O)CC9(C)C7=CCC6C5(C)C)OCC(OS(=O)(=O)O)C4O)C(OC4OCC(O)C(O)C4O)C3O)C2O)C1O (centres unmarked) [cucumarioside A2-5] |  |  | 5.43 |  | 0.55 |  |  | 1.63 ± 0.13 | IC50 (in vitro; MTT, 24 h incubation, read-out: Cytotoxicity, IC50, MCF-10A): 14 ± 1.03 µM; IC50 ([1]; MDA-MB-231, MTT, 24 h incubation): 2.58 ± 0.1 µM; cytotoxicity on prolonged incubation (in words) ([7]; incubation for 48 and 72 h, 1 on MDA-MB-231, 6 on T-47D and MDA-MB-231): did not lose cytotoxicity over time; inhibition of cell migration (scratch assay) (MDA-MB-231 cells [8]; 1 µM): about 85 % as compared to the control; inhibition of cell migration (scratch assay) (MDA-MB-231 cells [8]; listed as Cucumarioside A2-5, 1 µM): 85 % as compared to the control; IC50 ([4]; Homo sapiens, MCF7, MTT, 24 h incubation): 25.7 ± 1.49 µM; IC50 ([6]; MTT, 24 h incubation): 5.81 ± 0.86 µM; Selectivity Index (SI), T-47D ([6]; ratio of IC50 for healthy (MCF-10A) and cancer cells): 2.41
